ChEMBL document CHEMBL3244019, “Chemical and biological studies of 1-(2,5-dihydroxy-4-methylphenyl)-2-aminopropane, an analogue of 6-hydroxydopamine” (J Med Chem, 1979)

Experiments:
Brain = assay: Drug uptake in Sprague-Dawley rat brain at 6.6 mg, iv after 2 hrs; format: ADME, organism-based; conditions: in vivo
Albumin [1] = molecular target: T1, Albumin (Bos taurus, UniProt P02769); assay: Covalent binding affinity to bovine serum albumin at 4.8 mM after 1 hr by combustion-LSC method in presence of DDQ relative to control; format: ADME; conditions: cattle, 4800 µM
Albumin [2] = molecular target: T1, Albumin; assay: Covalent binding affinity to bovine serum albumin assessed per mol of BSA at 4.8 mM after 1 hr by combustion-LSC method; format: ADME; conditions: cattle, 4800 µM
[3] = Covalent binding in rabbit liver microsomal macromolecules at 60 uM after 15 mins in presence of NADPH; format: ADME, Oryctolagus cuniculus; conditions: microsomes, 0.25 h
[4] = Metabolic stability in rabbit liver homogenates with 90 ug of protein per ml assessed as compound auto-oxidation at 37 uM after 15 mins; format: ADME, tissue-based, Oryctolagus cuniculus; conditions: tissue homogenate, 0.25 h
[5] = Half life in rabbit liver microsomes assessed as compound auto-oxidation at 37 uM; format: ADME, Oryctolagus cuniculus
[6] = Half life of the compound in 0.1 M metal-free buffer assessed as compound auto-oxidation at 37 uM at pH 7.4; format: physicochemical
[7] = Half life in rabbit liver homogenates with 13 ug of protein per ml assessed as compound auto-oxidation at 37 uM; format: ADME, tissue-based, Oryctolagus cuniculus; conditions: liver homogenate
[8] = Half life of the compound assessed as compound auto-oxidation in 0.1 M buffer at 37 uM at pH 7.4; format: physicochemical

T1 sequence (P02769 whole entry): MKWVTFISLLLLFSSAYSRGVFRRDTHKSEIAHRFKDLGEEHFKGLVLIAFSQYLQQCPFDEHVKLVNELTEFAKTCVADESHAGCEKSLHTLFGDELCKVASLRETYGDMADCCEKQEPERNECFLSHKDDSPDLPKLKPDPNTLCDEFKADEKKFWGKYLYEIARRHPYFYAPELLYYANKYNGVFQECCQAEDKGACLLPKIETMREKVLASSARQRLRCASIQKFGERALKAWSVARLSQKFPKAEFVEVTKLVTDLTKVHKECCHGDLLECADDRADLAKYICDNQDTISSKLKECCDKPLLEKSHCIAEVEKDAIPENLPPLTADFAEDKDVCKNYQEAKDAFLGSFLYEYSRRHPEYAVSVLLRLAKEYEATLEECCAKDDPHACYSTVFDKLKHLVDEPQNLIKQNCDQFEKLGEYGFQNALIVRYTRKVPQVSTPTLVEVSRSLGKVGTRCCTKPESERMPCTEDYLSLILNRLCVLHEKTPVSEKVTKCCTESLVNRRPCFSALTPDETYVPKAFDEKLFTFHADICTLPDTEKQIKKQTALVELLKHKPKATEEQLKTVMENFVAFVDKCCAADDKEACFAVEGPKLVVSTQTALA

Question: Which Drug uptake (Brain) does the source give for [3H]C1C2=CC(=O)C(C)=CC2=NC1C (centres undefined) here?
Answer: 0.05%

Question: With [3H]C([3H])([3H])C(N)C([3H])([3H])c1cc(O)c(C)cc1O (centres undefined) as the compound, how does the “fold change (FC)” value (Albumin [1]) read?
Answer: 2

Question: And the PB (Albumin [2])?
Answer: 0.12 equiv

Question: With [3H]C([3H])([3H])C(N)C([3H])([3H])c1cc(OC)c(C)cc1OC (centres undefined) as the compound, how does the Activity [3] read?
Answer: 0.2%

Question: What does the source list for Cc1cc(O)c(CC(C)N)cc1O (centres undefined)?
Answer: Stability [4]: Stable; half-life at 37 µM [5]: 1.67 h; half-life at 37 µM [6]: 3 h; half-life at 37 µM [7]: 1.17 h; half-life at 37 µM [8]: 0.167 h
